The numbers were not newly measured in patent publication USRE38623E1, “Stabilization of ascorbic acid, ascorbic acid derivatives and/or extracts containing ascorbic acid for topical use” (Topix Pharmaceuticals, Inc., priority 1996, dated 2004), which cites them from elsewhere.

Where two headings read alike, the source gives them in different places. Some results are limits rather than exact numbers.

`O=C1O[C@H]([C@@H](O)CO)C(O)=C1O` [L-ascorbic acid]: the potency after storage (Darr '043 FIG. 1, after seven weeks, starting from 100 percent, L-ascorbic acid concentration of 1 percent) was 70%. Moreover, the drop in potency result (Darr '043 FIG. 1, seven weeks at room temperature, L-ascorbic concentrations of 3, 5 and 10 percent) is “less than 10%”; the drop in potency result (Darr '043 FIG. 1, seven weeks, L-ascorbic acid concentration of 1 percent) was “approximately 30%”. Besides, for the setting “Darr '043 FIG. 2, all four samples, eight weeks at room temperature, stored in the dark”, the lost potency was at least 10%.
